Series [1] in a line: Tissue distribution of single subcutaneous injection of F3 (1.0 mg/kg). Conditions: LC-MS/MS; for F3 in tissue samples (heart, brain, liver, kidney, lung, spleen, stomach, small intestine, testis, ovaries, subcutaneous fat, skeletal muscle): single s.c. 1.0 mg/kg, 1, 2, 4, 8, 24, 48 h, LOQ in tissues 40–80 ng/g; for level at 4 h / level at 1 h / level at 2 h: Sprague-Dawley, rat, plasma, sc, n=3, read-out: F3 concentration in plasma; for level at 4 h: 4th hr; for level at 1 h: 1 hour after administration; for level at 2 h: mean. It counts as in vivo, Sprague Dawley rats. As to the method: The concentration of F3 in rat plasma was determined by liquid chromatography-tandem mass spectrometry, using the method established by Kanglong Huacheng Co., Ltd. The analyte was assayed by liquid chromatography coupled with the tandem mass spectrometry (LC-MS/MS) method. The LC-MS/MS system consisted of a Shimadzu HPLC system (Kyoto, Japan) and an LCMS-8060 instrument (serial no. 011105500332 AE). The following were the LC conditions: column, HALO ES-C18 2.7 µ C18 160A (50 × 2.1 mm); gradient elution at 0.5 mL/min with 5% acetonitrile in water containing 0.1% formic acid or 95% acetonitrile in water containing 0.1% formic acid; and injection volume of 10 µL. A multiple reaction monitoring (MRM) method was selected for quantitative analysis. For analyte and internal standard, the optimum transitions were 519.50 > 129.15 (five charges) and 649.15 > 120.10 (four charges), 393.20 > 373.25, and 237.15 > 194.15, respectively. The instrumental parameters were set as follows: nebulizing gas flow was 3 L/min; heating gas flow was 10 L/min; interface temperature was 300°C; DL temperature was 250°C; and heat block temperature was 400°C.
Thirty-six SD rats (18 females, 18 males) were randomly selected and given a single subcutaneous injection of F3 at 1.0 mg/kg. Tissue samples were collected at 1, 2, 4, 8, 24, and 48 hours after F3 administration. At each time point, six rats (3 of each sex) were sacrificed. At least 0.5 ml of whole blood was collected before euthanasia, and 0.5–1.0 g of tissue was collected after euthanasia. The heart, brain, liver, kidney, lung, spleen, stomach, small intestine, testis, ovary, subcutaneous fat, and skeletal muscle were among the tissue types studied.
The desired serial concentrations of working solutions were achieved by diluting stock solution (1 mg/mL in DMSO) of analyte with 50% acetonitrile in water. 5 μL of working solutions (10 to 10000 ng/mL) were added to 50 μL of the blank rat plasma and tissues to achieve calibration standards or quality control (QC) samples of 1 to 1000 ng/mL in a total volume of 55 μL.
The resulting standard, QC, or study samples were added to 200 μL of methanol containing IS (50 ng/mL dexamethasone, 2 ng/mL verapamil and 2 ng/mL carbamazepine as internal standard (IS) for protein precipitation. All samples were then vortexed for 30 seconds. After centrifugation at 4°C and 4000 rpm (ca. 3740 x g) for 15 minutes, 100 µL of the supernatant was diluted with 200 µL of water for injection on LC-MS/MS.

A further series has as its system SD rats. Kind of series: Functional observation (mortality, clinical signs) in acute toxicity study. It is filed as in vivo, Sprague Dawley rats. Conditions: for mortality: single s.c. 1.0, 10.0, 100 mg/kg or 10.0 mg/kg daily x14 d, cage observation. As to the method:
The mortality, general health status, and toxic reaction symptoms of the experimental groups were documented. Before the first day of F3 administration and during the experiments, a detailed clinical observation was carried out and recorded the changes in skin, eyes and mucous membrane, respiratory system, nervous system, activity, and behaviors of the rats. The body weight was measured and recorded before the first day of administration.
Forty SD rats (20 males and 20 females) were randomly divided into 4 groups (Figure 1). All rats were given F3 once on the day of the experiment.
Twelve SD rats (6 males, 6 females) were given a daily subcutaneous injection of F3 at a dose of 10.0 mg/kg for consecutive 14 days. The first day of administration was recorded as day 1.

[2] abbreviates: female SD rats, single s.c. 1.0 mg/kg.
The mark [3] stands for this setting: male SD rats, single s.c. 1.0 mg/kg.

SMILES strings stand for the structures. “Also recorded” adds a separate entry of the source. Read-outs that look alike come from different tables or passages of the source. Peptide text beside a SMILES is read from it.

The values below come from publication PMC9363195, “Preclinical Pharmacokinetics, Biodistribution, and Acute Toxicity Evaluation of Caerin 1.9 Peptide in Sprague Dawley Rats” (Evidence-based Complementary and Alternative Medicine : eCAM, 2022).

Turning to `CC[C@H](C)[C@H](NC(=O)[C@H](CO)NC(=O)CNC(=O)[C@H](CC(C)C)NC(=O)[C@@H](NC(=O)CNC(=O)[C@H](Cc1ccccc1)NC(=O)[C@H](CC(C)C)NC(=O)CN)C(C)C)C(=O)N[C@@H](C)C(=O)N[C@@H](CCCCN)C(=O)N[C@@H](Cc1c[nH]cn1)C(=O)N[C@H](C(=O)N[C@@H](CC(C)C)C(=O)N1CCC[C@H]1C(=O)N[C@@H](Cc1c[nH]cn1)C(=O)N[C@H](C(=O)N[C@H](C(=O)N1CCC[C@H]1C(=O)N[C@H](C(=O)N[C@H](C(=O)N[C@@H](C)C(=O)N[C@@H](CCC(=O)O)C(=O)N[C@@H](CCCCN)C(=O)N[C@@H](CC(C)C)C(N)=O)[C@@H](C)CC)C(C)C)C(C)C)C(C)C)C(C)C` [F3, Caerin 1.9] (H-GLFGVLGSIAKHVLPHVVPVIAEKL-NH2), the “F3 in tissue samples (heart, brain, liver, kidney, lung, spleen, stomach, small intestine, testis, ovaries, subcutaneous fat, skeletal muscle)” value in series [1] (SD rats, 1 mg/kg) is on record as “No detectable F3”; in series [1] (SD rats, listed as Caerin 1.9, 1 mg/kg), less than 40 ng/g. Further, the “F3 in plasma samples collected at other time points” value in series [1] (SD rats, single s.c. 1.0 mg/kg, time points other than 1, 2, 4 h (8, 24, 48 h)) was “No detectable F3”. Moreover, the level at 4 h in series [1] (setting [2]) was 0.0194 ± 0.00596 µg/mL; in series [1] (setting [3]), 0.02 ± 0.00973 µg/mL. Also, the level at 1 h was found to be 0.174 ± 0.043 µg/mL in series [1] (setting [2]) and 0.165 ± 0.0465 µg/mL in series [1] (setting [3]). The results for the level at 2 h in series [1] (setting [2]) and in series [1] (setting [3]) were 0.0497 ± 0.00171 µg/mL and 0.104 ± 0.0255 µg/mL, respectively. Besides, in the series on SD rats (s.c. 10.0 mg/kg daily x14 d, 6 M/6 F), the “clinical observation: scabs at the injection site” value is “scabs were discovered at the injection site in one female rat, three female rats, and two male rats on the 8th, 12th, and 15th days, respectively”. For the same compound, the “clinical observation (fur, eyes, mucosa, respiratory, circulatory, nervous system, behaviors)” value with SD rats (single s.c. 1.0 mg/kg or 10.0 mg/kg) is listed as “no abnormalities”. For the same compound, the “clinical observation: dorsal scabs” value in the series with SD rats (single s.c. 100.0 mg/kg, 5 M/5 F) is “one male and two female rats on day 8 and two female rats on day 15 developed dorsal scabs”. For the same compound, the mortality result in the series on SD rats is reported as “no rats receiving F3 were found dead or dying; also recorded: No dead or dying rats were observed”; with SD rats (listed as Caerin 1.9), “does not cause mortality or organ malfunction”.
